Reference: patent publication US20250026752A1, “POSITIVE ALLOSTERIC MODULATORS OF THE MUSCARINIC ACETYLCHOLINE RECEPTOR M4” (Vanderbilt University, priority 2021, published 2025)

Molecular target: T1, human mAChR M4 (Homo sapiens, UniProt P08173)
T1 construct: expressed in transfected cells; host or cells: CHO-K1 (ATCC), stably expressing hM4 and Gqi5
T1 sequence (P08173 1-479): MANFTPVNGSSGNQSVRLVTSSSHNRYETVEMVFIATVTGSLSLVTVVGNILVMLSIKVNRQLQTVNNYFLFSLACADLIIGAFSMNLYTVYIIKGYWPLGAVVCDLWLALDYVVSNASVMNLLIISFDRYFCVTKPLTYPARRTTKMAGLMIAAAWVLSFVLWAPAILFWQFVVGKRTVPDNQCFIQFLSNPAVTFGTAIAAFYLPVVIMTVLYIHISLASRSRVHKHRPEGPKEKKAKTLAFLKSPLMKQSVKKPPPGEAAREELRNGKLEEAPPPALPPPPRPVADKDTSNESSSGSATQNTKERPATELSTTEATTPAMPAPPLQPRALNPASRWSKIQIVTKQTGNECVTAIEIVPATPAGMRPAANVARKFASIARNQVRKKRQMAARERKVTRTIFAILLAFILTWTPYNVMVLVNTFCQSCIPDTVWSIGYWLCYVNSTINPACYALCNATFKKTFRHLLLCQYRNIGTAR
Assay: mAChR M4 cell-based functional assay: calcium flux (Fluo-4, FDSS), positive allosteric modulator activity on the EC20 acetylcholine response, hM4-Gqi5 CHO-K1 cells
Conditions: for Emax at 30 µM: CHO-K1, human M4, % ACh maximum at 30 μM; for EC50: human M4, PAM activity on EC20 acetylcholine response, calcium flux, read-out: Human M4 EC50
How it was run: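 Potentiation was taken as the concentration-dependent rise in the EC20 acetylcholine calcium response, fitted by a four-parameter logistic with EC20 as baseline. Fluo-4-loaded hM4-Gqi5 CHO-K1 cells received 11-point, threefold-diluted compound before acetylcholine at 144 s; FDSS read at 1 Hz.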

| Emax at 30 µM | EC50 | SMILES |
| --- | --- | --- |
| 32% | 1740 nM | Cc1nc(N2CCc3ncc(C(F)(F)F)cc3C2)c2ccc(Br)cc2n1 [Compound 128, 7-bromo-2-methyl-4-[3-(trifluoromethyl)-7,8-dihydro-5H-1,6-naphthyridin-6-yl]quinazoline] |
| 86% | 180 nM | Cc1nc(N2CCc3ncc(C(F)(F)F)cc3C2)c2cc(Br)ccc2n1 [Compound 129, 6-bromo-2-methyl-4-[3-(trifluoromethyl)-7,8-dihydro-5H-1,6-naphthyridin-6-yl]quinazoline] |
| 86% | 80 nM | Cc1nc(N2CCc3ncc(C(F)(F)F)cc3C2)c2cc(F)ccc2n1 [Compound 130, 6-fluoro-2-methyl-4-[3-(trifluoromethyl)-7,8-dihydro-5H-1,6-naphthyridin-6-yl]quinazoline] |
| 82% | 30 nM | Cc1ccc2ncnc(N3CCc4ncc(C(F)(F)F)cc4C3)c2c1 [Compound 131, 6-methyl-4-[3-(trifluoromethyl)-7,8-dihydro-5H-1,6-naphthyridin-6-yl]quinazoline] |
| 32% | > 10000 nM | Cc1nc(N2CCc3ncc(C(F)(F)F)cc3C2)c2c(Cl)cccc2n1 [Compound 132, 5-chloro-2-methyl-4-[3-(trifluoromethyl)-7,8-dihydro-5H-1,6-naphthyridin-6-yl]quinazoline] |
| 87% | 230 nM | Cc1nc(N2CCc3ncc(Oc4ccccc4F)cc3C2)c2cc(F)ccc2n1 [Compound 133, 6-fluoro-4-[3-(2-fluorophenoxy)-7,8-dihydro-5H-1,6-naphthyridin-6-yl]-2-methyl-quinazoline] |
| 75% | 90 nM | Cc1nc(N2CCc3ncc(C(F)(F)F)cc3C2)c2cc(Cl)ccc2n1 [Compound 134, 6-chlroo-2-methyl-4-[3-(trifluoromethyl)-7,8-dihydro-5H-1,6-naphthyridin-6-yl]quinazoline] |
| 91% | 1660 nM | FC(F)(F)c1cnc2c(c1)CN(c1nc(Cl)nc3ccc(C(F)(F)F)cc13)CC2 [Compound 135, 2-chloro-6-(trifluoromethyl)-4-[3-(trifluoromethyl)-7,8-dihydro-5H-1,6-naphthyridin-6-yl]quinazoline] |
| 98% | 160 nM | FC(F)(F)c1cnc2c(c1)CN(c1ncnc3ccc(Br)cc13)CC2 [Compound 136, 6-bromo-4-[3-(trifluoromethyl)-7,8-dihydro-5H-1,6-naphthyridin-6-yl]quinazoline] |
| 83% | 430 nM | Fc1ccc2c(N3CCc4ncc(C(F)(F)F)cc4C3)ncnc2c1 [Compound 137, 7-fluoro-4-[3-(trifluoromethyl)-7,8-dihydro-5H-1,6-naphthyridin-6-yl]quinazoline] |
| 82% | 480 nM | Cc1nc(N2CCc3ncc(C(F)(F)F)cc3C2)c2ccccc2n1 [Compound 138, 2-methyl-4-[3-(trifluoromethyl)-7,8-dihydro-5H-1,6-naphthyridin-6-yl]quinazoline] |
| 97% | 200 nM | COc1ccc2ncnc(N3CCc4ncc(C(F)(F)F)cc4C3)c2c1 [Compound 139, 6-methoxy-4-[3-(trifluoromethyl)-7,8-dihydro-5H-1,6-naphthyridin-6-yl]quinazoline] |
| 105% | 80 nM | FC(F)(F)c1cnc2c(c1)CN(c1ncnc3ccc(Cl)cc13)CC2 [Compound 140, 6-chloro-4-[3-(trifluoromethyl)-7,8-dihydro-5H-1,6-naphthyridin-6-yl]quinazoline] |
| 95% | 220 nM | FC(F)(F)c1cnc2c(c1)CN(c1nc(Cl)nc3ccc(Cl)cc13)CC2 [Compound 141, 2,6-dichloro-4-[3-(trifluoromethyl)-7,8-dihydro-5H-1,6-naphthyridin-6-yl]quinazoline] |
| 105% | 260 nM | Cc1nc(N2CCc3ncc(C(F)(F)F)cc3C2)c2cc(C#N)ccc2n1 [Compound 142, 2-methyl-4-[3-(trifluoromethyl)-7,8-dihydro-5H-1,6-naphthyridin-6-yl]quinazoline-6-carbonitrile] |
| 77% | 1420 nM | Cc1nc(N2CCc3ncc(C(F)(F)F)cc3C2)c2cc(C3CC3)ccc2n1 [Compound 143, 6-cyclopropyl-2-methyl-4-[3-(trifluoromethyl)-7,8-dihydro-5H-1,6-naphthyridin-6-yl]quinazoline] |
| 74% | 1890 nM | Cc1ccc(Oc2cnc3c(c2)CN(c2ncnc4ccc(F)cc24)CC3)c(F)c1 [Compound 144, 6-fluoro-4-[3-(2-fluoro-4-methyl-phenoxy)-7,8-dihydro-5H-1,6-naphthyridin-6-yl]quinazoline] |
| 64% | 4800 nM | Cc1ccc(Oc2cnc3c(c2)CN(c2ncnc4ccc(Cl)cc24)CC3)c(F)c1 [Compound 145, 6-chloro-4-[3-(2-fluoro-4-methyl-phenoxy)-7,8-dihydro-5H-1,6-naphthyridin-6-yl]quinazoline] |
| 40% | > 10000 nM | COc1ccc2ncnc(N3CCc4ncc(Oc5ccc(C)cc5F)cc4C3)c2c1 [Compound 146, 4-[3-(2-fluoro-4-methyl-phenoxy)-7,8-dihydro-5H-1,6-naphthyridin-6-yl]-6-methoxy-quinazoline] |
| 54% | 8340 nM | Cc1ccc(Oc2cnc3c(c2)CN(c2nc(C)nc4ccc(Cl)cc24)CC3)c(F)c1 [Compound 147, 6-chloro-4-[3-(2-fluoro-4-methyl-phenoxy)-7,8-dihydro-5H-1,6-naphthyridin-6-yl]-2-methyl-quinazoline] |
| 88% | 760 nM | Cc1ccc(F)c(Oc2cnc3c(c2)CN(c2ncnc4ccc(F)cc24)CC3)c1 [Compound 148, 6-fluoro-4-[3-(2-fluoro-5-methyl-phenoxy)-7,8-dihydro-5H-1,6-naphthyridin-6-yl]quinazoline] |
| 97% | 170 nM | Clc1ccc2nc(Cl)nc(N3CCc4ncc(Br)cc4C3)c2c1 [Compound 149, 4-(3-bromo-7,8-dihydro-5H-1,6-naphthyridin-6-yl)-2,6-dichloro-quinazoline] |
| 105% | 100 nM | Fc1ccc2nc(Cl)nc(N3CCc4ncc(Br)cc4C3)c2c1 [Compound 150, 4-(3-bromo-7,8-dihydro-5H-1,6-naphthyridin-6-yl)-2-chloro-6-fluoro-quinazoline] |
| 102% | 110 nM | Fc1cc2ncnc(N3CCc4ncc(C(F)(F)F)cc4C3)c2cc1F [Compound 151, 6,7-difluoro-4-[3-(trifluoromethyl)-7,8-dihydro-5H-1,6-naphthyridin-6-yl]quinazoline] |
| 72% | 5290 nM | Cc1ccc(F)c(Oc2cnc3c(c2)CN(c2ncnc4ccc(Cl)cc24)CC3)c1 [Compound 152, 6-chloro-4-[3-(2-fluoro-5-methyl-phenoxy)-7,8-dihydro-5H-1,6-naphthyridin-6-yl]quinazoline] |
| 38% | > 10000 nM | COc1ccc2ncnc(N3CCc4ncc(Oc5cc(C)ccc5F)cc4C3)c2c1 [Compound 153, 4-[3-(2-fluoro-5-methyl-phenoxy)-7,8-dihydro-5H-1,6-naphthyridin-6-yl]-6-methoxy-quinazoline] |
